The source of these data is patent US10570148B2, “N-alkyl-2-phenoxyethanamines, their preparation and use” (The Trustees of Columbia University In the City of New York, priority 2013, dated 2020).

In data set [1] the target is T1, RBP4 (Homo sapiens, UniProt P02753). The data set can be described thus: Scintillation proximity RBP4 binding assay (SPA). The arrangement: Untagged human RBP4 purified from urine of tubular proteinuria patients; purchased Fitzgerald Industries International; host or cells: urine of tubular proteinuria patients. Particulars: analogs, present-tense paper example. The protocol:
Scintillation Proximity RBP4 Binding Assay
Untagged human RBP4 purified from urine of tubular proteinuria patients was purchased from Fitzgerald Industries International. It was biotinylated using the EZ-Link Sulfo-NHS-LC-Biotinylation kit from Pierce following the manufacturer's recommendations. Binding experiments were performed in 96-well plates (OptiPlate, PerkinElmer) in a final assay volume of 100 μl per well in SPA buffer (1×PBS, pH 7.4, 1 mM EDTA, 0.1% BSA, 0.5% CHAPS). The reaction mix contained 10 nM ^3H-Retinol (48.7 Ci/mmol; PerkinElmer), 0.3 mg/well Streptavidin-PVT beads, 50 nM biotinylated RBP4 and a test compound. Nonspecific binding was determined in the presence of 20 µM of unlabeled retinol. The reaction mix was assembled in the dark under dim red light. The plates were sealed with clear tape (TopSeal-A: 96-well microplate, PerkinElmer), wrapped in the aluminum foil, and allowed to equilibrate 6 hours at room temperature followed by overnight incubation at +4° C. Radiocounts were measured using a TopCount NXT counter (Packard Instrument Company).

For data set [2], the target named is T2, RBP4-TTR interaction (Homo sapiens, UniProt P02753). As to the kind of experiment: TR-FRET (HTRF) assay for retinol-induced RBP4-TTR interaction. Conditions: analogs, present-tense paper example. The arrangement: human RBP4 fragment (amino acids 19-201); host or cells: Gold(DE3)pLysS E. coli strain (Stratagene), pMAL-c4x vector. The format is biochemical. From the text: TR-FPET Assay for Retinol-induced RBP4-TTR Interaction
Binding of a desired RBP4 antagonist displaces retinol and induces hindrance for RBP4-TTR interaction resulting in the decreased FRET signal (FIG. 7). Bacterially expressed MBP-RBP4 and untagged TTR were used in this assay. For the use in the TR-FRET assay the maltose binding protein (MBP)-tagged human RBP4 fragment (amino acids 19-201) was expressed in the Gold(DE3)pLysS E. coli strain (Stratagene) using the pMAL-c4x vector. Following cell lysis, recombinant RBP4 was purified from the soluble fraction using the ACTA FPLC system (GE Healthcare) equipped with the 5-ml the MBP Trap HP column. Human untagged TTR was purchased from Calbiochem. Untagged TTR was labeled directly with Eu^3+ Cryptate-NHS using the HTRF Cryptate Labeling kit from CisBio following the manufacturer's recommendations. HTRF assay was performed in white low volume 384 well plates (Greiner-Bio) in a final assay volume of 16 μl per well. The reaction buffer contained 10 mM Tris-HCl pH 7.5, 1 mM DTT, 0.05% NP-40, 0.05% Prionex, 6% glycerol, and 400 mM KF. Each reaction contained 60 nM […] and 2 nM TTR-Eu along with 26.7 nM of anti-MBP antibody conjugated with d2 (Cisbio). Titration of test compounds in this assay was conducted in the presence of 1 μM retinol. All reactions were assembled in the dark under dim red light and incubated overnight at +4° C. wrapped in aluminum foil. TR-FRET signal was measured in the SpectraMax M5e Multimode Plate Reader (Molecular Device). Fluorescence was excited at 337 nm and two readings per well were taken: Reading 1 for time-gated energy transfer from Eu(K) to d2 (337 nm excitation, […] emission, counting delay 75 microseconds, counting window 100 microseconds) and Reading 2 for Eu(K) time-gated fluorescence (337 nm excitation, 620 rum emission, counting delay 400 microseconds, counting window 400 microseconds). The TR-FRET signal was expressed as the ratio of fluorescence intensity: Flu665/Flu620×10,000.

The conditions of data set [3]: in vivo; cited from earlier work.
Another data set concerns mice. Particulars: cited from earlier work.
For data set [4], the system named is retinal pigment epithelium cells. Conditions: many cell types, including the retinal pigment epithelium cells; cited from earlier work.
Another data set relates to Abca4−/− mice. Conditions: cited from earlier work.
For data set [5], the target named is T1, RBP4. Particulars: cited from earlier work.
Data set [6] concerns the target T2, RBP4-TTR interaction. Particulars: cited from earlier work.

`CN(CCOc1ccccc1C(C)(C)C)C(=O)c1c[nH]nn1` [Compound 12, N-(2-(2-(Tert-butyl)phenoxy)ethyl)-N-methyl-1H-1,2,3-triazole-5-carboxamide]: the melting point was in the range of 148 to 151 °C.
Regarding `CN(CCOc1ccccc1C(C)(C)C)C(=O)C(=O)O` [Compound 13, 2-((2-(2-(Tert-butyl)phenoxy)ethyl)(methyl)amino)-2-oxoacetic Acid], the melting point was 98 to 101 °C.
Same read-out and setting: next, `CC(C)c1ccccc1OCCN(C)C(=O)Nc1ccccc1C(=O)O` [Compound 17, 2-(3-(2-(2-Isopropylphenoxy)ethyl)-3-methylureido)benzoic Acid]: 146 to 149 °C.
`CN(CCOc1ccccc1C(C)(C)C)C(=O)Nc1ccncc1C(=O)O` [Compound 18, 4-(3-(2-(2-(tert-butyl)phenoxy)ethyl)-3-methylureido)nicotinic Acid] gave a melting point of 218 to 220 °C.
As to `CN(CCOc1ccc(Cl)cc1C(C)(C)C)C(=O)c1cn2ncccc2n1` [Compound 21, N-(2-(2-(tert-butyl)-4-chlorophenoxy)ethyl)-N-methylimidazo[1,2-b]pyridazine-2-carboxamide], the melting point lay within 73 to 78 °C.
With `CN(CCOc1ccccc1C(C)(C)C)C(=O)c1n[nH]c2ccc(F)cc12` [Compound 22, N-(2-(2-(tert-butyl)phenoxy)ethyl)-5-fluoro-N-methyl-1H-indazole-3-carboxamide], the melting point fell in the range of 186 to 190 °C.
`CN(CCOc1ccccc1C(C)(C)C)C(=O)c1cn2ncccc2n1` [Compound 23, N-(2-(2-(Tert-butyl)phenoxy)ethyl)-N-methylimidazo[1,2-b]pyridazine-2-carboxamide] yielded a melting point of 75 to 80 °C.
Same read-out and setting: the result for `CN(CCOc1ccccc1C(C)(C)C)C(=O)c1n[nH]c2ncccc12` [Compound 24, N-(2-(2-(Tert-butyl)phenoxy)ethyl)-N-methyl-1H-pyrazolo[3,4-b]pyridine-3-carboxamide] reads 157 to 159 °C.
For the molecule `CN(CCOc1ccccc1C(C)(C)C)C(=O)c1nnc2n1CCOC2` [Compound 25, N-(2-(2-(Tert-butyl)phenoxy)ethyl)-N-methyl-6,8-dihydro-5H-[1,2,4]triazolo[3,4-c][1,4]oxazine-3-carboxamide], the melting point lay in the range of 116 to 120 °C.
`CN(CCOc1ccccc1C(C)(C)C)C(=O)c1n[nH]c2c1CN(S(C)(=O)=O)C2` [Compound 28, N-(2-(2-(Tert-butyl)phenoxy)ethyl)-N-methyl-5-(methylsulfonyl)-1,4,5,6-tetrahydropyrrolo[3,4-c]pyrazole-3-carboxamide] displayed a melting point of 125 to 133 °C.
Turning to `CN(CCOc1ccccc1C(C)(C)C)C(=O)c1n[nH]c2c1CN(S(C)(=O)=O)CC2` [Compound 30, N-(2-(2-(tert-butyl)phenoxy)ethyl)-N-methyl-5-(methylsulfonyl)-4,5,6,7-tetrahydro-1H-pyrazolo[4,3-c]pyridine-3-carboxamide], the melting point fell in the range of 226 to 230 °C.
In the case of `CN(CCOc1ccccc1C(C)(C)C)C(=O)c1n[nH]c2c1CCN(S(C)(=O)=O)C2` [Compound 33, N-(2-(2-(Tert-butyl)phenoxy)ethyl)-N-methyl-6-(methylsulfonyl)-4,5,6,7-tetrahydro-1H-pyrazolo[3,4-c]pyridine-3-carboxamide], the melting point lay in the range of 233 to 237 °C.
Molecule `CN1CCc2c(C(=O)N(C)CCOc3ccccc3C(C)(C)C)n[nH]c2C1` [Compound 34, N-(2-(2-(Tert-butyl)phenoxy)ethyl)-N,6-dimethyl-4,5,6,7-tetrahydro-1H-pyrazolo[3,4-c]pyridine-3-carboxamide] came in with a melting point of 159 to 161 °C.
For `COC(=O)c1cc(C)nc(N(C)CCOc2ccccc2C(C)(C)C)n1` [Compound 36, methyl 2-((2-(2-(tert-butyl)phenoxy)ethyl)(methyl)amino)-6-methylpyrimidine-4-carboxylate], the “RBP4 binding (SPA)” value at RBP4 [1] is given as “bind to RBP4”. Moreover, at RBP4-TTR interaction [2], the “antagonism of retinol-dependent RBP4-TTR interaction (HTRF)” value (shortened to “antagonism”) was “antagonize retinol-dependent RBP4-TTR interaction”.
Consider `Cc1cc(C(=O)O)nc(N(C)CCOc2ccccc2C(C)(C)C)n1` [Compound 37, 2-((2-(2-(tert-butyl)phenoxy)ethyl)(methyl)amino)-6-methylpyrimidine-4-carboxylic acid], for which the “RBP4 binding (SPA)” value on RBP4 [1] is given as “bind to RBP4”. For the same molecule, the “antagonism” value at RBP4-TTR interaction [2] is given as “antagonize retinol-dependent RBP4-TTR interaction”.
With `COC(=O)c1cc(C)nc(N(C)CCOc2cc(C(F)(F)F)cc(C(F)(F)F)c2)n1` [Compound 38, methyl 2-((2-(3,5-bis(trifluoromethyl)phenoxy)ethyl)(methyl)amino)-6-methylpyrimidine-4-carboxylate], on RBP4 [1], the “RBP4 binding (SPA)” value was “bind to RBP4”. Besides, the “antagonism” value at RBP4-TTR interaction [2] is reported as “antagonize retinol-dependent RBP4-TTR interaction”.
As for `Cc1cc(C(=O)O)nc(N(C)CCOc2cc(C(F)(F)F)cc(C(F)(F)F)c2)n1` [Compound 39, 2-((2-(3,5-bis(trifluoromethyl)phenoxy)ethyl)(methyl)amino)-6-methylpyrimidine-4-carboxylic acid], the “RBP4 binding (SPA)” value on RBP4 [1] is recorded as “bind to RBP4”. For the same molecule, the “antagonism” value at RBP4-TTR interaction [2] is “antagonize retinol-dependent RBP4-TTR interaction”.
Take `CC1=C(/C=C/C(C)=C/C=C/C(C)=C/C(=O)Nc2ccc(O)cc2)C(C)(C)CCC1` [fenretinide, N-(4-hydroxy-phenyl)retinamide]: the “serum RBP4 and retinol” value in data set [3] is “reduce serum RBP4 and retinol”. Also, the formation of hemangiosarcomas result in the data set on mice was “stimulate formation of hemangiosarcomas”. Also, in data set [4], the induction of apoptosis entry was “extremely active inducer of apoptosis”. Also, the A2E production entry with Abca4−/− mice (Abca4−/− mice, animal model of excessive bisretinoid accumulation) is “reduced A2E production”. For the same molecule, in the data set with Abca4−/− mice (mouse, in vivo), the “ocular all-trans retinol uptake” value is “inhibit ocular all-trans retinol uptake” and the visual cycle entry is listed as “slow down the visual cycle”. In addition, on RBP4 [5], the “binding to RBP4” value is recorded as “bind to RBP4” and the “displacement of all-trans retinol from RBP4” value is recorded as “displace all-trans retinol from RBP4”. For the same molecule, the “disruption of the RBP4-TTR interaction” value at RBP4-TTR interaction [6] is reported as “disrupt the RBP4-TTR interaction”.
